Where “and” joins values, the source holds several entries; their conditions need not be identical. Equal entries are not always repeated.
Experiments:
[1] = test system: PC-3; assay: NCI-60 one-dose SRB screen (Prostate Cancer); assay type: cell-based; details: Homo sapiens, single dose 10 µM, 48 h, read-out: Growth inhibition percent (GI %)
[2] = test system: DU-145; assay: NCI-60 one-dose SRB screen (Prostate Cancer); assay type: cell-based; details: Homo sapiens, single dose 10 µM, 48 h, read-out: Growth inhibition percent (GI %)
[3] = test system: EKVX; assay: NCI-60 one-dose SRB screen (Non-Small Cell Lung Cancer); assay type: cell-based; details: Homo sapiens, single dose 10 µM, 48 h, read-out: Growth inhibition percent (GI %)
[4] = test system: A549/ATCC; assay: as above; assay type: cell-based; details: Homo sapiens, single dose 10 µM, 48 h, read-out: Growth inhibition percent (GI %)
[5] = test system: NCI-H522; assay: as above; assay type: cell-based; details: Homo sapiens, single dose 10 µM, 48 h, read-out: Growth inhibition percent (GI %)
[6] = test system: HOP-92; assay: as above; assay type: cell-based; details: Homo sapiens, single dose 10 µM, 48 h, read-out: Growth inhibition percent (GI %)
[7] = test system: NCI-H23; assay: as above; assay type: cell-based; details: Homo sapiens, single dose 10 µM, 48 h, read-out: Growth inhibition percent (GI %)
[8] = test system: NCI-H226; assay: as above; assay type: cell-based; details: Homo sapiens, single dose 10 µM, 48 h, read-out: Growth inhibition percent (GI %)
[9] = test system: HOP-62; assay: as above; assay type: cell-based; details: Homo sapiens, single dose 10 µM, 48 h, read-out: Growth inhibition percent (GI %)
[10] = test system: NCI-H322M; assay: as above; assay type: cell-based; details: Homo sapiens, single dose 10 µM, 48 h, read-out: Growth inhibition percent (GI %)
[11] = test system: NCI-H460; assay: as above; assay type: cell-based; details: Homo sapiens, single dose 10 µM, 48 h, read-out: Growth inhibition percent (GI %)
[12] = test system: HT29; assay: NCI-60 one-dose SRB screen (Colon Cancer); assay type: cell-based; details: Homo sapiens, HT-29, single dose 10 µM, 48 h, read-out: Growth inhibition percent (GI %)
[13] = test system: HCC-2998; assay: NCI-60 one-dose SRB screen (Colon Cancer); assay type: cell-based; details: Homo sapiens, single dose 10 µM, 48 h, read-out: Growth inhibition percent (GI %)
[14] = test system: KM12; assay: NCI-60 one-dose SRB screen (Colon Cancer); assay type: cell-based; details: Homo sapiens, single dose 10 µM, 48 h, read-out: Growth inhibition percent (GI %)
[15] = test system: HCT-116; assay: NCI-60 one-dose SRB screen (Colon Cancer); assay type: cell-based; details: Homo sapiens, single dose 10 µM, 48 h, read-out: Growth inhibition percent (GI %)
[16] = test system: HCT-15; assay: NCI-60 one-dose SRB screen (Colon Cancer); assay type: cell-based; details: Homo sapiens, single dose 10 µM, 48 h, read-out: Growth inhibition percent (GI %)
[17] = test system: COLO 205; assay: NCI-60 one-dose SRB screen (Colon Cancer); assay type: cell-based; details: Homo sapiens, single dose 10 µM, 48 h, read-out: Growth inhibition percent (GI %)
[18] = test system: SW-620; assay: NCI-60 one-dose SRB screen (Colon Cancer); assay type: cell-based; details: Homo sapiens, single dose 10 µM, 48 h, read-out: Growth inhibition percent (GI %)
[19] = test system: MDA-MB-435; assay: NCI-60 one-dose SRB screen (Melanoma); assay type: cell-based; details: Homo sapiens, single dose 10 µM, 48 h, read-out: Growth inhibition percent (GI %)
[20] = test system: UACC-257; assay: NCI-60 one-dose SRB screen (Melanoma); assay type: cell-based; details: Homo sapiens, single dose 10 µM, 48 h, read-out: Growth inhibition percent (GI %)
[21] = test system: SK-MEL-5; assay: NCI-60 one-dose SRB screen (Melanoma); assay type: cell-based; details: Homo sapiens, single dose 10 µM, 48 h, read-out: Growth inhibition percent (GI %)
[22] = test system: SK-MEL-2; assay: NCI-60 one-dose SRB screen (Melanoma); assay type: cell-based; details: Homo sapiens, single dose 10 µM, 48 h, read-out: Growth inhibition percent (GI %)
[23] = test system: SK-MEL-28; assay: NCI-60 one-dose SRB screen (Melanoma); assay type: cell-based; details: Homo sapiens, single dose 10 µM, 48 h, read-out: Growth inhibition percent (GI %)
[24] = test system: MALME-3M; assay: NCI-60 one-dose SRB screen (Melanoma); assay type: cell-based; details: Homo sapiens, single dose 10 µM, 48 h, read-out: Growth inhibition percent (GI %)
[25] = test system: LOX IMVI; assay: NCI-60 one-dose SRB screen (Melanoma); assay type: cell-based; details: Homo sapiens, single dose 10 µM, 48 h, read-out: Growth inhibition percent (GI %)
[26] = test system: M14; assay: NCI-60 one-dose SRB screen (Melanoma); assay type: cell-based; details: Homo sapiens, single dose 10 µM, 48 h, read-out: Growth inhibition percent (GI %)
[27] = test system: CAKI-1; assay: NCI-60 one-dose SRB screen (Renal Cancer); assay type: cell-based; details: Homo sapiens, single dose 10 µM, 48 h, read-out: Growth inhibition percent (GI %)
[28] = test system: SN12C; assay: NCI-60 one-dose SRB screen (Renal Cancer); assay type: cell-based; details: Homo sapiens, single dose 10 µM, 48 h, read-out: Growth inhibition percent (GI %)
[29] = test system: UO-31; assay: NCI-60 one-dose SRB screen (Renal Cancer); assay type: cell-based; details: Homo sapiens, single dose 10 µM, 48 h, read-out: Growth inhibition percent (GI %)
[30] = test system: 786-0; assay: NCI-60 one-dose SRB screen (Renal Cancer); assay type: cell-based; details: Homo sapiens, single dose 10 µM, 48 h, read-out: Growth inhibition percent (GI %)
[31] = test system: RXF 393; assay: NCI-60 one-dose SRB screen (Renal Cancer); assay type: cell-based; details: Homo sapiens, single dose 10 µM, 48 h, read-out: Growth inhibition percent (GI %)
[32] = test system: TK-10; assay: NCI-60 one-dose SRB screen (Renal Cancer); assay type: cell-based; details: Homo sapiens, single dose 10 µM, 48 h, read-out: Growth inhibition percent (GI %)
[33] = test system: ACHN; assay: NCI-60 one-dose SRB screen (Renal Cancer); assay type: cell-based; details: Homo sapiens, single dose 10 µM, 48 h, read-out: Growth inhibition percent (GI %)
[34] = test system: A498; assay: NCI-60 one-dose SRB screen (Renal Cancer); assay type: cell-based; details: Homo sapiens, single dose 10 µM, 48 h, read-out: Growth inhibition percent (GI %)
[35] = test system: SF-539; assay: NCI-60 one-dose SRB screen (CNS Cancer); assay type: cell-based; details: Homo sapiens, single dose 10 µM, 48 h, read-out: Growth inhibition percent (GI %)
[36] = test system: U251; assay: NCI-60 one-dose SRB screen (CNS Cancer); assay type: cell-based; details: Homo sapiens, U-251, single dose 10 µM, 48 h, read-out: Growth inhibition percent (GI %)
[37] = test system: SNB-75; assay: NCI-60 one-dose SRB screen (CNS Cancer); assay type: cell-based; details: Homo sapiens, single dose 10 µM, 48 h, read-out: Growth inhibition percent (GI %)
[38] = test system: SF-295; assay: NCI-60 one-dose SRB screen (CNS Cancer); assay type: cell-based; details: Homo sapiens, single dose 10 µM, 48 h, read-out: Growth inhibition percent (GI %)
[39] = test system: SNB-19; assay: NCI-60 one-dose SRB screen (CNS Cancer); assay type: cell-based; details: Homo sapiens, single dose 10 µM, 48 h, read-out: Growth inhibition percent (GI %)
[40] = test system: SF-268; assay: NCI-60 one-dose SRB screen (CNS Cancer); assay type: cell-based; details: Homo sapiens, single dose 10 µM, 48 h, read-out: Growth inhibition percent (GI %)
[41] = test system: OVCAR-4; assay: NCI-60 one-dose SRB screen (Ovarian cancer); assay type: cell-based; details: Homo sapiens, single dose 10 µM, 48 h, read-out: Growth inhibition percent (GI %)
[42] = test system: OVCAR-3; assay: NCI-60 one-dose SRB screen (Ovarian cancer); assay type: cell-based; details: Homo sapiens, single dose 10 µM, 48 h, read-out: Growth inhibition percent (GI %)
[43] = test system: SK-OV-3; assay: NCI-60 one-dose SRB screen (Ovarian cancer); assay type: cell-based; details: Homo sapiens, single dose 10 µM, 48 h, read-out: Growth inhibition percent (GI %)
[44] = test system: NCI/ADR-RES; assay: NCI-60 one-dose SRB screen (Ovarian cancer); assay type: cell-based; details: Homo sapiens, single dose 10 µM, 48 h, read-out: Growth inhibition percent (GI %)
[45] = test system: OVCAR-5; assay: NCI-60 one-dose SRB screen (Ovarian cancer); assay type: cell-based; details: Homo sapiens, single dose 10 µM, 48 h, read-out: Growth inhibition percent (GI %)
[46] = test system: OVCAR-8; assay: NCI-60 one-dose SRB screen (Ovarian cancer); assay type: cell-based; details: Homo sapiens, single dose 10 µM, 48 h, read-out: Growth inhibition percent (GI %)
[47] = test system: IGROV1; assay: NCI-60 one-dose SRB screen (Ovarian cancer); assay type: cell-based; details: Homo sapiens, IGROV-1, single dose 10 µM, 48 h, read-out: Growth inhibition percent (GI %)
[48] = biological target: hCA XII (Homo sapiens, UniProt O43570); assay: CA inhibitory activity, spectrophotometric p-NPA assay; assay type: biochemical
Chain of hCA XII (O43570 25-354): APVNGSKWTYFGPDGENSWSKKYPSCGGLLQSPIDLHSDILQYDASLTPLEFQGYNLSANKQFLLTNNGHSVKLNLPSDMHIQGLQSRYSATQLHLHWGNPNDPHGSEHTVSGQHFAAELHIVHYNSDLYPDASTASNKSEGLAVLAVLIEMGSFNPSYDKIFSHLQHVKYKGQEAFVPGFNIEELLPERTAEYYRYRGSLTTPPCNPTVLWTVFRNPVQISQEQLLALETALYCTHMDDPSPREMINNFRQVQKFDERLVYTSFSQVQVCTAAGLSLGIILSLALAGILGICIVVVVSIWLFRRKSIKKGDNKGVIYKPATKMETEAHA

## CCOC(=O)c1ccc(NC(=O)COC(=O)c2cn(-c3ccc(S(N)(=O)=O)cc3)nc2-c2ccc(C)cc2)cc1 [Compound 5b, 2-[(4-(Ethoxycarbonyl)phenyl)amino]-2-oxoethyl 1-(4-sulfamoylphenyl)-3-(p-tolyl)-1H-pyrazole-4-carboxylate]
[1]
  inhibition at 10 µM: 68.7%
[2]
  inhibition at 10 µM: 28.9%
[3]
  inhibition at 10 µM: 55.6%
[4]
  inhibition at 10 µM: 51.1%
[5]
  inhibition at 10 µM: 49%
[6]
  inhibition at 10 µM: 56.3%
[7]
  inhibition at 10 µM: 40.3%
[8]
  inhibition at 10 µM: 43%
[9]
  inhibition at 10 µM: < 5%
[10]
  inhibition at 10 µM: 23.7%
[11]
  inhibition at 10 µM: 60.8%
[12]
  inhibition at 10 µM: 64.4%
[13]
  inhibition at 10 µM: 47%
[14]
  inhibition at 10 µM: 70.3%
[15]
  inhibition at 10 µM: 60.7%
[16]
  inhibition at 10 µM: 65.7%
[17]
  inhibition at 10 µM: 42.3%
[18]
  inhibition at 10 µM: 37%
[19]
  inhibition at 10 µM: 47.3%
[20]
  inhibition at 10 µM: 39.1%
[21]
  inhibition at 10 µM: 39.3%
[22]
  inhibition at 10 µM: 27.9%
[23]
  inhibition at 10 µM: 48.2%
[24]
  inhibition at 10 µM: 35.5%
[25]
  inhibition at 10 µM: 53.6%
[26]
  inhibition at 10 µM: 56.9%
[27]
  inhibition at 10 µM: 70.2%
[28]
  inhibition at 10 µM: 38.2%
[29]
  inhibition at 10 µM: 58.8%
[30]
  inhibition at 10 µM: 66%
[31]
  inhibition at 10 µM: 73.2%
[32]
  inhibition at 10 µM: 14%
[33]
  inhibition at 10 µM: 52.8%
[34]
  inhibition at 10 µM: 31.7%
[35]
  inhibition at 10 µM: 60.9%
[36]
  inhibition at 10 µM: 54.1%
[37]
  inhibition at 10 µM: 62.9%
[38]
  inhibition at 10 µM: 54.8%
[39]
  inhibition at 10 µM: 48.4%
[40]
  inhibition at 10 µM: 55.4%
[41]
  inhibition at 10 µM: 58.8%
[42]
  inhibition at 10 µM: 53.5%
[43]
  inhibition at 10 µM: < 5%
[44]
  inhibition at 10 µM: 22.3%
[45]
  inhibition at 10 µM: 33.1%
[46]
  inhibition at 10 µM: 12.8%
[47]
  inhibition at 10 µM: 21.4%
[48]
  Ki: 106 nM
[48]; p-NPA substrate, pH 7.5, 25 °C, triplicate, read-out: IC50 (µM) ± SD hCA XII
  IC50: 0.1 µM and 0.106 µM

Source: article PMC12454493, “Insight on novel sulfamoylphenyl pyrazole derivatives as anticancer carbonic anhydrase inhibitors” (Molecular Diversity, 2024)
